From article PMC9346611, “Impact of an Adenosine A2A Receptor Agonist and Antagonist on Binding of the Dopamine D2 Receptor Ligand [^11C]raclopride in the Rodent Striatum” (Molecular Pharmaceutics, 2022)
Like-named read-outs stand apart in the source and are kept apart here. Marks after values point to notes of the source that are not given here.

Assays:
dopamine D2/D3 receptors = molecular target: dopamine D2/D3 receptors; design: method as in PMID 2528555; conditions: cited from earlier work
dopamine release [1] = tested on: dopamine release; design: method as in PMID 15525341; conditions: locally administered 3, 10, 50, and 100 μM; cited from earlier work
dopamine D2 receptor = conditions: 1 mg/kg
Experimental: Pretreatment of animals with a high dose of a specific (nonradioactive) receptor ligand is the standard method used in PET imaging to assess whether a PET tracer binds to its intended target. […] Only one PET scan was made in animals subjected to arterial blood sampling.
Blood samples with a volume of 0.10–0.13 mL were drawn from the femoral artery at 10, 20, 30, 40, 50, 60, and 90 s and 2, 3, 5, 7.5, 10, 15, 30, and 60 min after tracer administration. After the collection of each sample, an equal volume of saline with 1% heparin was infused into the artery to compensate for the blood volume loss. Larger blood samples (0.8–1 mL) were drawn at 5, 10, 30, and 60 min for [^11C]raclopride metabolite analysis. From each blood sample, a plasma sample was obtained by the centrifugation of whole blood for 5 min at 3000 g.

D2R [2] = tested on: D2R; design: method as in PMID 26100888; conditions: transiently transfected CHO cells; cited from earlier work
D2R [3] = tested on: D2R; design: method as in PMID 11435907; conditions: rat brain slices, striatal area; cited from earlier work
D2R [4] = tested on: D2R; design: method as in PMID 11435907; conditions: human brain slices, striatal area; cited from earlier work
dopamine release [5] = tested on: dopamine release; design: method as in PMID 10502311; conditions: low doses 0.01–1 μM; cited from earlier work
D2R [6] = conditions: CHO cells co-transfected with A2AR and D2R; cited from earlier work
human D2R = tested on: human D2R; design: method as in PMID 8982704, PMID 10617149; conditions: SH-SY5Y cells; cited from earlier work
dopamine D2R = tested on: dopamine D2R; design: method as in PMID 1678519; conditions: rat striatal membrane preparations; cited from earlier work
[7] = Heart rate monitoring with pulse oximeters during PET scan; assay type: in vivo; conditions: 1 mg/kg, persisted throughout the scan
[8] = cited from earlier work
[9] = design: method as in PMID 1684818; conditions: cited from earlier work
D2R/D3R = tested on: D2R/D3R; design: method as in PMID 25871974; conditions: human, oral 300 mg; cited from earlier work

SMILES | k3, accumbens (2TCM) (dopamine D2 receptor) | k3, caudate-putamen (2TCM) (dopamine D2 receptor) | k3, cerebellum (2TCM) (dopamine D2 receptor) | k3, globus pallidus (2TCM) (dopamine D2 receptor) | k3, striatum (2TCM) (dopamine D2 receptor) | k3/k4, accumbens (2TCM) (dopamine D2 receptor) | k3/k4, caudate-putamen (2TCM) (dopamine D2 receptor) | k3/k4, cerebellum (2TCM) (dopamine D2 receptor) | k3/k4, globus pallidus (2TCM) (dopamine D2 receptor) | k4, accumbens (2TCM) (dopamine D2 receptor) | k4, caudate-putamen (2TCM) (dopamine D2 receptor) | k4, cerebellum (2TCM) (dopamine D2 receptor) | k4, globus pallidus (2TCM) (dopamine D2 receptor) | k4, striatum (2TCM) (dopamine D2 receptor) | affinity of D2R for radioligands [^3H]quinpirole and [^3H]raclopride (D2R [2]) | also measured
CCN1CCC[C@H]1CNC(=O)c1c(O)c(Cl)cc(Cl)c1OC (racemic) [[^11C]raclopride] |  |  |  |  |  |  |  |  |  |  |  |  |  |  |  | Kd (dopamine D2/D3 receptors; read-out: affinity (Kd) by equilibrium analysis): 10 nM; Kd (dopamine D2/D3 receptors; read-out: equilibrium dissociation constant KdVR by compartmental modeling): 6.2 nM
CCNC(=O)[C@H]1O[C@@H](n2cnc3c(N)nc(NCCc4ccc(CCC(=O)O)cc4)nc32)[C@H](O)[C@@H]1O [CGS21680] | 0.012 ± 0.006*** min^–1 | 0.034 ± 0.014*** min^–1 | 0.028 ± 0.012*** min^–1 | 0.029 ± 0.017*** min^–1 | 0.033 ± 0.013*** min^–1 | 0.87 ± 0.20 | 1.28 ± 0.35 | 1.19 ± 0.32 | 1.63 ± 3.6 | 0.015 ± 0.008*** min^–1 | 0.026 ± 0.009** min^–1 | 0.023 ± 0.010** min^–1 | 0.022 ± 0.021** min^–1 | 0.026 ± 0.009** min^–1 | reduces the affinity | dopamine release in entire striatum and shell of nucleus accumbens (dopamine release [1]): increase; IC50 values of competition between [^125I]iodosulpiride and dopamine (D2R [3]): significant increase; IC50 values of competition between [^125I]iodosulpiride and dopamine (D2R [4]): significant increase; electrically evoked dopamine release (dopamine release [5]): inhibit; change of D2R numbers (D2R [6]): without any change; change of affinity of D2R for dopamine (D2R [6]): three- to fourfold decrease; change of affinity of D2R to agonists (human D2R): two- to threefold decreased; decrease of affinity of dopamine D2R for agonist L-(−)-[^3H]NPA (dopamine D2R): 40%; heart rate, reduction in some animals down to [7]: 94 bpm
CCn1c(=O)c2c(nc(/C=C/c3ccc(OC)c(OC)c3)n2C)n(CC)c1=O [KW6002, istradefylline] | 0.035 ± 0.015 min^–1 | 0.086 ± 0.027** min^–1 | 0.072 ± 0.028 min^–1 | 0.087 ± 0.028* min^–1 | 0.085 ± 0.027** min^–1 | 0.91 ± 0.27 | 2.02 ± 0.52 | 1.75 ± 0.52 | 1.86 ± 0.54 | 0.039 ± 0.013 min^–1 | 0.043 ± 0.012 min^–1 | 0.041 ± 0.011 min^–1 | 0.048 ± 0.013 min^–1 | 0.043 ± 0.011 min^–1 |  | k3/k4, striatum (2TCM) (dopamine D2 receptor): 2.00 ± 0.53; peripheral effects ([8]; rat, in vivo): does not have potent peripheral effects; tolerability after intraperitoneal administration ([8]; rats, doses up to 3 mg/kg): well tolerated
CCNC(=O)[C@H]1O[C@@H](n2cnc3c(N)ncnc32)[C@H](O)[C@@H]1O [NECA, 5’-N-ethylcarboxamide adenosine] |  |  |  |  |  |  |  |  |  |  |  |  |  |  |  | effect on heart rate, bolus of low doses [9]: tachycardia; effect on heart rate, high dose ([9]; total dose of 3 mg/kg infused over 60 min): rapid reduction in heart rate
Cn1c(=O)c2c(ncn2C)n(C)c1=O [caffeine] |  |  |  |  |  |  |  |  |  |  |  |  |  |  | reduces the affinity | increase of D2R/D3R availability in putamen and ventral striatum (D2R/D3R): 5–6%
